The subject of assay [1] is cartilage. Nature of the assay: Rabbit model of IL-1α-induced cartilage degradation (intra-articular injection, knee joint). The following applies: for Proteoglycan Loss (% Control): 24 hours (IL-1α alone 35.40 ± 3.12). In kind it is in vivo. As to the method: Rabbits (3.0-3.2 kg) were obtained from Hazelton (Denver, Pa.); Xylazine from W. A. Butler (Columbus, Ohio); Rompun from Miles Inc, (Shawnee Mission, Kans.); Ketamine HCl from Aveco (Fort Dodge Labs, Fort Dodge, Iowa); Pentobarbital from Western Medical Supply (Acadia, Calif.); human recombinant Interleukin-1α (IL-1α) from Genzyme (Cambridge, Mass.); Cetus Pro/Pette (Perkin Elmer, Norwalk, Conn.); Biomek 1000 (Beckman, Fullerton, Calif.).
The assay was performed in two phases. The hind leg knee joints were first injected with IL-1α and compound for 24 hours. The proteoglycan content of cartilage was then quantified by measuring chondroitin sulfate present using the 1,9-Dimethylmethylene Blue Assay (DMB).
Each treatment was done in quadruplicate, necessitating twelve animals per study. Rabbits were anesthetized by injecting intramuscularly 0.9 mL Rompun combined with 1.8 mL Ketoset. Hind leg knee area was shaved and wiped with 70% EtOH and both drug and IL-1α were injected intra-articulary (27-gauge needle) in succession.
0.5 mL DMSO/Saline and 0.5 mL PBS/0.2% FCS.
0.5 mL DMSO/Saline containing 8 μg Compound 1 and 2500 U/0.5 mL IL-1α.
0.5 mL DMSO/Saline containing 8 μg Compound 1 and 0.5 mL PBS/0.2% FCS.
0.5 mL DMSO/Saline containing 24 μg Compound 1 and 0.5 mL IL-1α.
0.5 mL DMSO/Saline containing 24 μg Compound 1 and 0.5 mL PBS/0.2% FCS. […]
The ability of a compound to inhibit proteoglycan release from cartilage pieces was quantified by measuring chondroitin sulfate. […] This color change was measured using a Titertek Multiscan MCC 340 plate reader at 540 nm. […] The DMB assay was performed by adding 10 μL of samples to 290 μL DMB (16 mg dye/L of 0.1 M formate buffer, pH 3.5, containing 5 mL ethanol) and reading at 540 nm. Once the experiment was completed the total amount of proteoglycan remaining in the cartilage pieces was determined by digesting cartilage samples with papain and then performing 1,9 DMB assay on the digest. […] Digested material was diluted (1:5, 1:10, 1:20) and chondroitin sulfate values determined using the 1,9 DMB assay.

Assay [2] concerns bovine nasal cartilage. Nature of the assay: Bovine nasal cartilage assay: inhibition of IL-1β-induced proteoglycan loss (chondroitin sulfate by 1,9 DMB). The assay is classed as cell-based. The conditions noted are these: Bos taurus; concentration preventing 50% of proteoglycan loss; IL-1β-stimulated cartilage plugs. As to the method:
The BNC (bovine nasal cartilage) assay provides a model for evaluating chrondroprotective compounds that block cartilage degradation through inhibition of enzyme activity or by altering the gene expression of the matrix metalloproteinases such as stromelysin.
The assay is accomplished in two phases. The cartilage plugs are first incubated with IL-1β in the presence of the compounds of the present method. The amount of proteoglycan released is then quantified by measuring chondroitin sulfate present in the media using the 1,9-Dimethylmethylene Blue Assay (1,9 DMB).
Bovine nasal septum is dissected free of surrounding tissue and wiped with 70% alcohol. A sterile cork borer is used to remove 5-mm cartilage disks of 2- to 3-mm thickness. Explants are equilibrated for 96 hours in F-12 supplemented with 10% fetal calf serum (FCS) and antibiotics at 37° C. in a humidified atmosphere of 95% air and 5% CO2. Explants are then rinsed with 1 mL F-12 Nutrient Mixture (without phenol red) in order to remove traces of FCS. Each treatment group is done in triplicate allowing: controls (500 μL F-12 medium +110 μL PBS with 0.1% BSA +7 μL DMSO); IL-1β (500 μL F-12 medium without phenol red +100 μL IL-1β (500 U) +7 μL DMSO +10 μL PBS with 0.1% BSA); and dose responses (10, 1, and 0.1 μM) (F-12 medium without phenol red +100 μL IL-1β (500 U) +7 μL compound dissolved in DMSO +10 μL PBS with 0.1% BSA), to be tested per each 24-well plate. The cartilage plugs are incubated in the presence of conditioned media (IL-1β+compound) for 48 hours. Fresh unconditioned media (no IL-1β or compound) is added and incubated for an additional 24 hours. Both the conditioned and unconditioned media are collected and saved for analysis using the 1,9 DMB assay.
The ability of a compound to inhibit proteoglycan released from the cartilage plugs is quantified by measuring chondroitin sulfate. This is done using the calorimetric 1,9 DMB assay. Depending on the amount of chondroitin sulfate present in the media a color change will occur turning the normally deep blue dye, vivid pink. This color change is measured using a Titertek Multiscan MCC 340 plate reader at 540 nm. A Cetus Pro/Pette is used to speed dilution and pipetting steps. The Cetus uses Sarstedt vials, designed for radioimmune assays, which have been inserted into Sarstedt 96-vial aluminum racks. The first row of 12 slots is left empty in order to accommodate the chondroitin sulfate standards (0.01-0.32 μg/mL shark chondroitin sulfate in 0.1 M phosphate buffer, pH 7.0, containing 0.01 M L-cysteine HCl and 0.05 M EDTA). It is necessary to dilute (1:5, 1:10) the medium before a […] is performed by adding 10 μL of collected media to 290 μL DMF (16 mg dye/1 L of 0.1 M formate buffer, pH 3.5, containing 5 mL ethanol) and reading at […]. Dilutions are performed on both the 48-hour and 72-hour media samples collected and saved earlier. Once the experiment has been completed, in order to determine the total amount of proteoglycan remaining in the plugs, they are subjected to papain digestion. Cartilage explants are digested in 20-mL glass scintillation vials by adding 50 μL papain in 1.0 mL cysteine buffer (0.01 M phosphate buffer, pH 7.0 containing 0.01 M L-cysteine HCl and 0.05 M EDTA). Digested material is diluted (1:60) and chondroitin sulfate values determined using the 1,9 DMB assay.
Determination of chondroitin sulfate in each sample is accomplished by subtracting the constant value determined from the linear regression performed on the standard curve, from the O.D. value for a particular well, and then dividing by the X coefficient calculated from the linear regression done on the standard curve. Each experimental well is split into two samples for determining chondroitin sulfate values, then the two are averaged. […]

Molecules are shown by their SMILES. pIC50: −log10 of the molar value.

As usually defined, the pIC50 is the IC50 on a negative log10 scale, so that one unit is a factor of ten. A high value points to a low IC50.

On to `S=c1[nH]nc(-c2ccccc2Nc2ccccc2)o1` [Compound 1, 5-(2-Phenylamino-phenyl)-3H-[1,3,4]oxadiazole-2-thione], for which the “Proteoglycan Loss (% Control)” value is recorded as 18.78 ± 10.98 % Control in assay [1] (8 μg/jt with IL-1α) and 9.35 ± 7.26 % Control in assay [1] (24 μg/jt with IL-1α, * significantly different from IL-1α alone). The inhibiting cartilage degradation result in assay [1] (8 and 24 μg/joint, 24 hours) was “effective in inhibiting cartilage degradation in a dose-dependent manner”. Further, in assay [2], the pIC50 is 6.08.

These data come from patent US6211209A, “Method of inhibiting connective tissue degradation” (Warner-Lambert Company, priority 1998, dated 2001).
